Values quoted from earlier work as cited in patent US20110313191A1, “Preparation of Pharmaceutical Salts of 3-0-(3',3'-Dimethylsuccinyl) Betulinic Acid” (Myrexis, Inc., priority 2005, published 2011).

Test system: HIV
Details: comparison with regioisomer 3-O-2′,2′-DSB; literature statement

SMILES: C=C(C)[C@@H]1CC[C@]2(C(=O)O)CC[C@]3(C)[C@H](CC[C@@H]4[C@@]5(C)CC[C@H](OC(=O)CC(C)(C)C(=O)O)C(C)(C)[C@@H]5CC[C@]43C)[C@@H]12 [3-O-3′,3′-DSB, 3-O-(3′,3′-dimethylsuccinyl)betulinic acid]
- EC50 of 3-O-3′,3′-DSB relative to that of 3-O-2′,2′-DSB: about four orders of magnitude lower
